Results taken from patent publication US20240398822A1, “METHODS AND COMPOSITIONS FOR TREATING AND MANAGING ALZHEIMER'S DISEASE” (Pharmatrophix, Inc., priority 2021, published 2024).

Assay: Phase 1 SAD/MAD pharmacokinetics
Format: in vivo
Description: The phase 1 study was placebo controlled and double blinded and included 52 subjects in SAD studies and 20 subjects in MAD studies.

Q: For `NCCN1CCOCC1` [aminoethyl morpholine metabolite, aminoethyl morpholine], which food effect (elderly adults, fed versus fasted) is on record?
A: apparent food effect

Q: And the “pharmacokinetics after single oral doses” value (exposure proportional to dose over 100-900 mg of free base)?
A: linear pharmacokinetics

Q: And the “time to reach steady state upon multiple dosing” value (in vivo)?
A: approximately 5 days post dose
